Values after ≈ are worked out from the molar mass of the structure shown. Where a SMILES comes first, the peptide text is derived from it. [ ]: non-standard residue; d: D form. Nleu = CC(C)CNCC(=O)O; Nlys = NCCCCNCC(=O)O
Legend:
[1] = Circular dichroism, α-helical content; type: physicochemical; details: 0.1 mg/mL; for CD %α with 5 mM DPC: 10 mM phosphate buffer pH 7.4, 5 mM DPC; for CD %α with 20% TFE: 10 mM phosphate buffer pH 7.4, 20% TFE
[2] = test system: human red blood cells (hRBC); assay: Minimum hemolytic concentration (MHC); type: cell-based
Source text: We also measured minimal hemolysis concentrations (MHC) on human red blood cells by serial 2-fold dilution as an indication of toxicity against eukaryotic cells (Table 1).

HEK293 cells = assay: Cell viability assay by Alamar blue; details: read-out: Toxicity on HEK293 cells; CSV
Experimental: The data are represented as the mean value ± SD, n = 3. […] (c) Vesicle leakage assay for a selection of compounds. Lipid vesicles made of EYPG or EYPC were suspended in a buffer (10 mM TRIS, 107 mM NaCl, pH 7.4). After 45 s, the indicated compound was added to reach the desired concentration. After 240 s, 30 μL of 1.2% TritonX-100 was added for full fluorescein release. […] See Supporting Information for the full curves, all of the data, and procedures.
HEK293 cells were cultured and maintained in DMEM high glucose (Dulbecco’s modified Eagle medium, Sigma Aldrich) medium supplemented with 10% FBS (Sigma Aldrich) and 1% penicillin/streptomycin. A549 cells were cultured and maintained in RPMI-1640 medium (Sigma Aldrich), supplemented with 10% FBS (Sigma Aldrich) and 1% penicillin/streptomycin. The cells were handled and subcultured according to the manufacturer instructions. Cells were incubated in a humidified incubator at 37 °C in the presence of 5% CO2.
Assays on HEK293, A549 cells were performed as described earlier.[74] […]

S. aureus Newman = details: Newman, 4 h, pH 8.5
Experimental: (§1) Antimicrobial activity was assayed for all the peptide–peptoids against P. aeruginosa PAO1, K. pneumoniae NCTC418, E. coli W3110, A. baumannii ATCC 19606, methicillin-resistant S. aureus COL (MRSA), and for selected peptides on P. aeruginosa PA14 and the polymyxin-B-resistant derivatives PA14 4.13, PA14 4.18, PA14 2P4, as well as the clinical isolates ZEM-1A and ZEM9A, K. pneumoniae OXA-48, S. aureus Newman, Enterobacter cloacae, Stenotrophomonas maltophilia, Burkholderia cenocepacia, and Staphylococus epidermidis. To determine the Minimal Inhibitory Concentration (MIC), the Broth Microdilution method was used.[72] A colony of bacteria was picked and grown in LB medium overnight at 37 °C.
(§2) To each well was finally added 4 μL of the diluted bacterial suspension (see above), corresponding to approximately 5 × 10^5 CFU. For each test, two columns of the plate were kept for sterility control (medium only), growth control (medium with bacterial inoculum, no compound). The positive control, Polymyxin B (starting with a concentration of 16 μg/mL) in MH medium with bacterial inocula, was introduced in the two lines of the plate. […] Next, 15 μL of 3-(4,5-dimethylthiazol-2-yl)-2,5-diphenyltetrazolium bromide (MTT)[73] (1 mg/mL in sterilized MilliQ deionized water) were added to each well, and the plates were incubated for 20–30 min at room temperature. The minimal inhibitory concentration (MIC) was defined as the lowest concentration of the compound that inhibits the visible growth of the tested bacteria (yellow) with the unaided eye.

P. aeruginosa PA14 = details: PA14, pH 8.5
Experimental: as §1, §2

PA14 4.13 (phoQ) = details: CSV; […] MH at pH 8.5
Experimental: as §1
(§3) To each well was finally added 4 μL of the diluted bacterial suspension (see above), corresponding to approximately 5 × 10^5 CFU. For each test, two columns of the plate were kept for sterility control (medium only), growth control (medium with bacterial inoculum, no compound). The positive control, Polymyxin B (starting with a concentration of 16 μg/mL) in MH medium with bacterial inocula, was introduced in the two lines of the plate. The plates were incubated at 37 °C for ca. 18 h under static conditions. Next, 15 μL of 3-(4,5-dimethylthiazol-2-yl)-2,5-diphenyltetrazolium bromide (MTT)[73] (1 mg/mL in sterilized MilliQ deionized water) were added to each well, and the plates were incubated for 20–30 min at room temperature. The minimal inhibitory concentration (MIC) was defined as the lowest concentration of the compound that inhibits the visible growth of the tested bacteria (yellow) with the unaided eye.

S. aureus COL (MRSA) = test system: S. aureus COL (MRSA)
Experimental: as §1, §3

A. baumannii ATCC19606 = test system: A. baumannii ATCC19606
Experimental: as §1, §3

K. pneumoniae NCTC418 = test system: K. pneumoniae NCTC418
Experimental: as §1, §3

PA14 2P4 (pmrB) = details: CSV; […] MH at pH 8.5
Experimental: as §1, §3

PA14 4.18 (pmrB) = details: […] MH at pH 8.5
Experimental: as §1, §3

P. aeruginosa PAO1 = test system: P. aeruginosa PAO1
Experimental: as §1, §3

E. coli W3110 = test system: E. coli W3110
Experimental: as §1, §3

CC(C)C[C@H](NC(=O)CN(CCCCN)C(=O)[C@H](CC(C)C)NC(=O)[C@H](CC(C)C)NC(=O)[C@H](CCCCN)NC(=O)[C@H](CC(C)C)NC(=O)[C@H](CC(C)C)NC(=O)[C@H](CCCCN)NC(=O)CNCCCCN)C(=O)N[C@@H](CC(C)C)C(=O)N(CC(N)=O)CC(C)C [EB2, kKLLKLLkLLl] (H-[Nlys]KLLKLL[Nlys]LL[Nleu]-NH2)
CD %α with 5 mM DPC ([1]; DichroWeb, Contin-LL): 11%
CD %α with 20% TFE ([1]; DichroWeb, Contin-LL): 15%
CD %α with 5 mM DPC ([1]; Table S2): 11%
CD %α with 20% TFE ([1]; Table S2): 15%
Hemolysis [2]: none of them showed any measurable hemolysis
MHC [2]: >2000 µg/mL
IC50 (HEK293 cells): > 200 µM
MIC S. aureus Newman (S. aureus Newman): 2 to 4 µg/mL
MIC P. aeruginosa PA14 (P. aeruginosa PA14): 2 to 4 µg/mL
MIC P. aeruginosa PA14 4.13, […] MH at pH 8.5 (PA14 4.13 (phoQ)): 4 ug/mL
MIC S. aureus COL (MRSA), full MH at pH 7.4 (S. aureus COL (MRSA); COL, 4 h, pH 7.4): >32 ug/mL
MIC S. aureus COL (MRSA), full MH at pH 8.5 (S. aureus COL (MRSA); COL, 4 h, pH 8.5): 32 ug/mL
MIC S. aureus COL (MRSA) […] 7.4 (S. aureus COL (MRSA); Table S2, […] MH, pH 7.4): 32 µg/mL (≈ 24.2 µM)
MIC S. aureus COL (MRSA) […] 8.5 (S. aureus COL (MRSA); Table S2, […] MH, pH 8.5): 2 µg/mL (≈ 1.51 µM)
MIC S. aureus COL (MRSA) Full MH 7.4 (S. aureus COL (MRSA); Table S2, full MH, pH 7.4): > 32 µg/mL
MIC S. aureus COL (MRSA) Full MH 8.5 (S. aureus COL (MRSA); Table S2, full MH, pH 8.5): 32 µg/mL (≈ 24.2 µM)
MIC A. baumannii ATCC19606, full MH at pH 7.4 (A. baumannii ATCC19606; ATCC19606, 4 h, pH 7.4): >32 ug/mL
MIC A. baumannii ATCC19606 […] 7.4 (A. baumannii ATCC19606; Table S2, […] MH, pH 7.4): 16 µg/mL (≈ 12.1 µM)
MIC A. baumannii ATCC19606 […] 8.5 (A. baumannii ATCC19606; Table S2, […] MH, pH 8.5): 8 µg/mL (≈ 6.05 µM)
MIC A. baumannii ATCC19606 Full MH 7.4 (A. baumannii ATCC19606; Table S2, full MH, pH 7.4): > 32 µg/mL
MIC A. baumannii ATCC19606 Full MH 8.5 (A. baumannii ATCC19606; Table S2, full MH, pH 8.5): 32 µg/mL (≈ 24.2 µM)
MIC K. pneumoniae NCTC418, full MH at pH 7.4 (K. pneumoniae NCTC418; NCTC418, 4 h, pH 7.4): >32 ug/mL
MIC K. pneumoniae NCTC418, full MH at pH 8.5 (K. pneumoniae NCTC418; NCTC418, 4 h, pH 8.5): >32 ug/mL
MIC K. pneumoniae NCTC418 […] 7.4 (K. pneumoniae NCTC418; Table S2, […] MH, pH 7.4): > 32 µg/mL
MIC K. pneumoniae NCTC418 […] 8.5 (K. pneumoniae NCTC418; Table S2, […] MH, pH 8.5): > 32 µg/mL
MIC K. pneumoniae NCTC418 Full MH 7.4 (K. pneumoniae NCTC418; Table S2, full MH, pH 7.4): > 32 µg/mL
MIC K. pneumoniae NCTC418 Full MH 8.5 (K. pneumoniae NCTC418; Table S2, full MH, pH 8.5): > 32 µg/mL
MIC P. aeruginosa PA14 2P4, […] MH at pH 8.5 (PA14 2P4 (pmrB)): 8 ug/mL
MIC P. aeruginosa PA14 4.18, […] MH at pH 8.5 (PA14 4.18 (pmrB); CSV): 6 ug/mL
MIC P. aeruginosa PA14 4.18 (PA14 4.18 (pmrB); Table S3): 4 to 8 µg/mL
MIC P. aeruginosa PAO1, full MH at pH 7.4 (P. aeruginosa PAO1; PAO1, 4 h, pH 7.4): 32 ug/mL
MIC P. aeruginosa PAO1, full MH at pH 8.5 (P. aeruginosa PAO1; PAO1, 4 h, pH 8.5): 16 ug/mL
MIC P. aeruginosa PAO1 […] 7.4 (P. aeruginosa PAO1; Table S2, […] MH, pH 7.4): 16 µg/mL (≈ 12.1 µM)
MIC P. aeruginosa PAO1 […] 8.5 (P. aeruginosa PAO1; Table S2, […] MH, pH 8.5): 8 µg/mL (≈ 6.05 µM)
MIC P. aeruginosa PAO1 Full MH 7.4 (P. aeruginosa PAO1; Table S2, full MH, pH 7.4): 32 µg/mL (≈ 24.2 µM)
MIC P. aeruginosa PAO1 Full MH 8.5 (P. aeruginosa PAO1; Table S2, full MH, pH 8.5): 16 µg/mL (≈ 12.1 µM)
MIC E. coli W3110, […] MH at pH 7.4 (E. coli W3110; CSV, […] MH at pH 7.4): 4 ug/mL
MIC E. coli W3110, full MH at pH 7.4 (E. coli W3110; CSV, full MH at pH 7.4): 32 ug/mL
MIC E. coli W3110, full MH at pH 8.5 (E. coli W3110; CSV, full MH at pH 8.5): 32 ug/mL
MIC E. coli W3110 […] 7.4 (E. coli W3110; Table S2, […] MH, pH 7.4): 4 µg/mL (≈ 3.03 µM)
MIC E. coli W3110 […] 8.5 (E. coli W3110; Table S2, […] MH, pH 8.5): 2 µg/mL (≈ 1.51 µM)
MIC E. coli W3110 Full MH 7.4 (E. coli W3110; Table S2, full MH, pH 7.4): 32 µg/mL (≈ 24.2 µM)
MIC E. coli W3110 Full MH 8.5 (E. coli W3110; Table S2, full MH, pH 8.5): 32 µg/mL (≈ 24.2 µM)

— PMC10714400, “Antimicrobial Peptide–Peptoid Hybrids with and without Membrane Disruption” (ACS Infectious Diseases, 2023)
